Measured values published in ChEMBL document CHEMBL1154665, “Novel compounds designed as antistress agents” (J Med Chem, 2009).

How the values were obtained:
Rattus norvegicus [1] = test: Antistress activity against food and water deprivation-induced stress in rat assessed as change in body weight at 0.055 mmol/kg, ip after 3 hrs; format: functional
Rattus norvegicus [2] = test: Antistress activity against food and water deprivation-induced stress in rat assessed as increase in thymus weight measured per 100 gm of body weight at 0.055 mmol/kg, ip after 3 hrs; format: functional
Rattus norvegicus [3] = test: Antihyperlipidemic activity in triton WR 1339 treated rat assessed as triglyceride at 56 umol/kg, ip measured after 24 hrs; format: functional
Brain = test: Antioxidant activity in rat brain homogenate assessed as malondialdehyde release; format: functional, tissue-based
Rattus norvegicus [4] = test: Antistress activity against food and water deprivation-induced stress in rat assessed as increase in adrenal weight measured per 100 gm of body weight at 0.055 mmol/kg, ip after 3 hrs; format: functional
Rattus norvegicus [5] = test: Antistress activity against food and water deprivation-induced stress in rat assessed as decrease in uropepsinogen level in urine at 0.055 mmol/kg, ip after 3 hrs; format: functional
Rattus norvegicus [6] = test: Antihyperlipidemic activity in triton WR 1339 treated rat assessed as LDL-cholesterol at 56 umol/kg, ip measured after 24 hrs; format: functional
Rattus norvegicus [7] = test: Antihyperlipidemic activity in triton WR 1339 treated rat assessed as plasma total cholesterol at 56 umol/kg, ip measured after 24 hrs; format: functional
Rattus norvegicus [8] = test: Antistress activity against food and water deprivation-induced stress in rat assessed as increase in liver weight measured per 100 gm of body weight at 0.055 mmol/kg, ip after 3 hrs; format: functional
Rattus norvegicus [9] = test: Antistress activity against food and water deprivation-induced stress in rat assessed as reduction in malondialdehyde formation at 0.055 mmol/kg, ip after 3 hrs; format: functional
Rattus norvegicus [10] = species on record: Rattus norvegicus; test: Antistress activity in rat assessed as decrease in stress-induced hepatic cytochrome P450 level by spectroscopically; format: functional; set-up: scale not given: the % may be the effect or the level left
Rattus norvegicus [11] = species on record: Rattus norvegicus; test: Antistress activity in rat assessed as decrease in stress-induced oxidative N-demethylation of erythromycin; format: functional; set-up: scale not given: the % may be the effect or the level left

Row | SMILES | Activity (Rattus norvegicus [1]) [%] | Activity (Rattus norvegicus [2]) [mg] | Activity (Rattus norvegicus [3]) [%] | IC50 (Brain) [µM] | Activity (Rattus norvegicus [4]) [mg] | Activity (Rattus norvegicus [5]) [kiloU/hr] | Activity (Rattus norvegicus [6]) [%] | Activity (Rattus norvegicus [7]) [%] | Activity (Rattus norvegicus [8]) [mg] | Activity (Rattus norvegicus [9]) [nmol/mg] | Activity (Rattus norvegicus [10]) [%] | Activity (Rattus norvegicus [11]) [%]
1 | CC(C)(C)c1cc(C(=O)NCCCC(=O)OC2N=C(c3ccccc3Cl)c3cc(Cl)ccc3NC2=O)cc(C(C)(C)C)c1O (centres undefined) | -3.8 | 151 | 40 | 24 | 40 | 30 | 40 | 40 | 4.5 | 41.2 | – | –
2 | Cc1c(C)c2c(c(C)c1O)CC[C@](C)(C(=O)NCCCC(=O)OC1N=C(c3ccccc3Cl)c3cc(Cl)ccc3NC1=O)O2 (some centres undefined) | -10 | 117 | 40 | 1.1 | 34 | 34 | 40 | 40 | 4.2 | 37.5 | 35 | 40
3 | CC(C)(C)c1cc(C(=O)O)cc(C(C)(C)C)c1O | – | – | – | 257 | – | – | – | – | – | – | – | –
4 | Cc1c(C)c2c(c(C)c1O)CC[C@](C)(C(=O)O)O2 [(R)-TROLOX] | – | – | – | 25 | – | – | – | – | – | – | – | –
